The values below come from patent US20120101086A1, “THIADIAZOLE DERIVATIVES AND THEIR USE FOR THE TREATMENT OF DISORDERS MEDIATED BY S1P1 RECEPTORS” (GLAXO GROUP LIMITED, priority 2009, published 2012).

Counter-ions that a name gives are not always drawn.

Series [1] addresses T1, S1P1 (Homo sapiens, UniProt P21453). The experiment in a line: S1P-1 β-Arrestin recruitment assay. The class given is cell-based. The conditions noted are these: PathHunter CHO-K1 EDG1 β-Arrestin cell line, chemi-luminescence. The arrangement: host or cells: PathHunter CHO-K1 EDG1 β-Arrestin cell line. The procedure:
β-Arrestin recruitment assays were carried out using the PathHunter CHO-K1 EDG1 β-Arrestin cell line (DiscoveRx Corporation) in a chemi-luminescence detection assay. This cell line stably expresses β-Arrestin 2 and S1P1 fused to complementing portions of β-galactosidase (‘EA’ and ‘pro-link’, respectively) which associate upon Arrestin recruitment to form functional β-galactosidase enzyme.
Cells were grown to 80% confluency in Growth Medium (F12 nutrient HAMS supplemented with 10% heat-inactivated USA FBS, 1% L-glutamax, 800 m/ml Geneticin and 300 m/ml Hygromycin). Cells were harvested from the flask using Enzyme Free Cell Dissociation Buffer (Gibco) and washed from flasks with Optimem solution (Gibco). Cells were then centrifuged at 1000 rpm for 2-3 min and resuspended in Assay Buffer (Prepared from Sigma kit H1387 supplemented with 20 ml/L HEPES, 4.7 ml/L NaHCO3, 0.1% pluronic acid F-68 solution, 0.1% BSA and adjusted to pH 7.4 using sodium hydroxide at 1×10^6 cells/ml. Cells were dispensed into assay plates containing compounds (100n1/well of a solution of test compound in 100% DMSO) at 1×10^4 cells/well and incubated at 37° C./5% CO2 for 90 min followed by 15 min at room temperature. 5 μl detection mix (1 part Galacton Star, 5 parts Emerald II, 19 parts Assay Buffer; DiscoveRx) were added per well and the plates incubated at room temperature for 60 min. Luminescence was quantified using a Viewlux plate reader.
In general terms: Recruitment of arrestin is a read-out of receptor activation apart from second messengers.

For series [2], the target named is T1, S1P1. Nature of the series: S1P1 GTPγS assay. The arrangement: expressed in transfected cells; host or cells: RH7777 cells (membranes). The conditions noted are these: tested in one of the above S1P1 assays (two protocols). It counts as biochemical. The procedure: The potencies and efficacies of the compounds of this invention for the S1P1 receptor can be determined by GTPγS assay performed on the human cloned receptor as described herein. […] All steps were performed at 4° C. Cells were homogenised within a glass Waring blender for 2 bursts of 15 secs in 200 mls of buffer (50 mM HEPES, 1 mM leupeptin, 25 m/ml bacitracin, 1 mM EDTA, 1 mM PMSF, 2 μM pepstatin A). The blender was plunged into ice for 5 mins after the first burst and 10-40 mins after the final burst to allow foam to dissipate. The material was then spun at 500 g for 20 mins and the supernatant spun for 36 mins at 48,000 g. The pellet was resuspended in the same buffer as above but without PMSF and pepstatin A. The material was then forced through a 0.6 mm needle, made up to the required volume, (usually ×4 the volume of the original cell pellet), aliquoted and stored frozen at—80° C. S1P1 expressing RH7777 membranes (1.5 μg/well) membranes (1.5 μg/well) were homogenised by passing through a 23G needle. These were then adhered to WGA-coated SPA beads (0.125 mg/well) in assay buffer (HEPES 20 mM, MgCl2, 10 mM, NaCl 100 mM and pH adjusted to 7.4 using KOH 5M). GDP 10 μM FAC and saponin 90 μg/ml FAC were also added After 30 minutes precoupling on ice, the bead and membrane suspension was dispensed into white Greiner polypropylene LV 384-well plates (5 μl/well), containing 0.1 μl of compound. 5 μl/well [^35S]-GTPγS (0.5 nM for S1P1 or 0.3 nM for S1P3 final radioligand concentration) made in assay buffer was then added to the plates. The final assay cocktail (10.1 μl) was then sealed, spun on a centrifuge, then read immediately on a Viewlux instrument. Alternatively, after 30 minutes precoupling on ice, the bead and membrane suspension was mixed with ^35S]-GTPγS (0.5 nM final radioligand concentration) in assay buffer (HEPES 20 mM, MgCl2 10 mM, NaCl 100 mM and pH adjusted to 7.4 using KOH 5M) in a 1:1 ratio. The bead, membrane and radioligand suspension was dispensed into white Greiner polypropylene low volume 384-well plates (10 μl/well), containing 0.1 μl of a solution of test compound in 100% DMSO. The final assay cocktail (10.1 μl) was then sealed, spun on a centrifuge, then read immediately on a Viewlux instrument.

The conditions of series [3]: clinical studies, first 24 hours of treatment; cited from earlier work.
For the next series, the system named is circulating lymphocytes. The conditions noted are these: animals and man; cited from earlier work.

T1 sequence (P21453 whole entry, the tested form may be a part): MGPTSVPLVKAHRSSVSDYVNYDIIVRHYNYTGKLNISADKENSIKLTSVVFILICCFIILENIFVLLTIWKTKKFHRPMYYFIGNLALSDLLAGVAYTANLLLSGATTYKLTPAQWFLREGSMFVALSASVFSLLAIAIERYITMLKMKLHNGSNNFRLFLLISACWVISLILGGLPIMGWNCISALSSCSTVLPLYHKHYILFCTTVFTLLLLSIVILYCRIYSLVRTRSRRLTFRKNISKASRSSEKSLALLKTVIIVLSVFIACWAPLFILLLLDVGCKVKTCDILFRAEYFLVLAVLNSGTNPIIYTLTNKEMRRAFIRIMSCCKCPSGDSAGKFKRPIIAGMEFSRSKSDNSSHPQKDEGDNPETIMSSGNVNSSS

For the molecule `Cc1c2c(nn1-c1nnc(-c3ccc(OC(C)C)c(Cl)c3)s1)CCN(CCC(=O)O)C2` [Example 2, 3-[2-(5-{3-Chloro-4-[(1-methylethyl)oxy]phenyl}-1,3,4-thiadiazol-2-yl)-3-methyl-2,4,6,7-tetrahydro-5H-pyrazolo[4,3-c]pyridin-5-yl]propanoic acid], the EC50 at S1P1 [1] and at S1P1 [2] was ≤ 10 nM throughout.

Consider `Cc1c2c(nn1-c1nnc(-c3ccc(OC(C)C)c(C#N)c3)s1)CCNC2` [Example 3, 2-[(1-Methylethyl)oxy]-5-[5-(3-methyl-4,5,6,7-tetrahydro-2H-pyrazolo[4,3-c]pyridin-2-yl)-1,3,4-thiadiazol-2-yl]benzonitrile], for which the EC50 (commonly the midpoint of the concentration-response curve) at S1P1 [1] was ≤ 100 nM. Same read-out and setting: the figure for `Cc1c2c(nn1-c1nnc(-c3ccc(OC(C)C)c(C#N)c3)s1)CCN(CCC(=O)O)C2` [Example 4, 3-[2-(5-{3-Cyano-4-[(1-methylethyl)oxy]phenyl}-1,3,4-thiadiazol-2-yl)-3-methyl-2,4,6,7-tetrahydro-5H-pyrazolo[4,3-c]pyridin-5-yl]propanoic acid trifluoroacetic acid salt] is ≤ 10 nM; for `Cc1c2c(nn1-c1nnc(-c3ccc(OC(C)C)c(C#N)c3)s1)CCN(CCC(N)=O)C2` [Example 5, 3-[2-(5-{3-Cyano-4-[(1-methylethyl)oxy]phenyl}-1,3,4-thiadiazol-2-yl)-3-methyl-2,4,6,7-tetrahydro-5H-pyrazolo[4,3-c]pyridin-5-yl]propanamide] it is ≤ 10 nM.

Consider `CC(C)Oc1ccc(-c2nnc(-n3cc4c(n3)CCN(CCCC(=O)O)C4)s2)cc1Cl` [Example 7, 4-[2-(5-{3-Chloro-4-[(1-methylethyl)oxy]phenyl}-1,3,4-thiadiazol-2-yl)-2,4,6,7-tetrahydro-5H-pyrazolo[4,3-c]pyridin-5-yl]butanoic acid], for which the EC50 at S1P1 [1] is ≤ 10 nM; on S1P1 [2] it was ≤ 100 nM. The matching figures for `CC(C)Oc1ccc(-c2nnc(-n3cc4c(n3)CCN(CCC(=O)O)C4)s2)cc1Cl` [Example 8, 3-[2-(5-{3-Chloro-4-[(1-methylethyl)oxy]phenyl}-1,3,4-thiadiazol-2-yl)-2,4,6,7-tetrahydro-5H-pyrazolo[4,3-c]pyridin-5-yl]propanoic acid]: ≤ 10 nM and ≤ 100 nM. Turning to `CC(C)Oc1ccc(-c2nnc(-n3cc4c(n3)CCN(CCC(=O)O)C4)s2)cc1C#N` [Example 12, 3-[2-(5-{3-Cyano-4-[(1-methylethyl)oxy]phenyl}-1,3,4-thiadiazol-2-yl)-2,4,6,7-tetrahydro-5H-pyrazolo[4,3-c]pyridin-5-yl]propanoic acid], the results for the EC50 at S1P1 [1] and at S1P1 [2] were ≤ 10 nM and ≤ 100 nM, respectively. Regarding `CC(C)Oc1ccc(-c2nnc(-n3cc4c(n3)CCN(CCCC(=O)O)C4)s2)cc1C#N` [Example 13, 4-[2-(5-{3-Cyano-4-[(1-methylethyl)oxy]phenyl}-1,3,4-thiadiazol-2-yl)-2,4,6,7-tetrahydro-5H-pyrazolo[4,3-c]pyridin-5-yl]butanoic acid], at S1P1 [1], the 50% effective concentration (EC50) was ≤ 10 nM. Still for that read-out and setting: the figure for `CC(C)Oc1ccc(-c2nnc(-n3ncc4c3CCN(CCC(=O)O)C4)s2)cc1Cl` [Example 15, 3-[1-(5-{3-Chloro-4-[(1-methylethyl)oxy]phenyl}-1,3,4-thiadiazol-2-yl)-1,4,6,7-tetrahydro-5H-pyrazolo[4,3-c]pyridin-5-yl]propanoic acid] is ≤ 100 nM. In the case of `Cc1c2c(nn1-c1nnc(-c3ccc(OC(C)C)c(C#N)c3)s1)CCN(C(CO)CO)C2` [Example 25, 5-(5-{5-[2-hydroxy-1-(hydroxymethyl)ethyl]-3-methyl-4,5,6,7-tetrahydro-2H-pyrazolo[4,3-c]pyridin-2-yl}-1,3,4-thiadiazol-2-yl)-2-[(1-methylethyl)oxy]benzonitrile], on S1P1 [1], the EC50 was ≤ 10 nM. Same read-out and setting: the figure for `Cc1c2c(nn1-c1nnc(-c3ccc(OC(C)C)c(C#N)c3)s1)CCN(C[C@H](O)CO)C2` [Example 26, 5-(5-{5-[(2S)-2,3-dihydroxypropyl]-3-methyl-4,5,6,7-tetrahydro-2H-pyrazolo[4,3-c]pyridin-2-yl}-1,3,4-thiadiazol-2-yl)-2-[(1-methylethyl)oxy]benzonitrile] is ≤ 10 nM; for `Cc1c2c(nn1-c1nnc(-c3ccc(OC(C)C)c(C#N)c3)s1)CCN(C(=O)CN[C@H](C)CO)C2` [Example 30, 5-[5-(5-{N—[(1R)-2-hydroxy-1-methylethyl]glycyl}-3-methyl-4,5,6,7-tetrahydro-2H-pyrazolo[4,3-c]pyridin-2-yl)-1,3,4-thiadiazol-2-yl]-2-[(1-methylethyl)oxy]benzonitrile] it is ≤ 10 nM. Turning to `Cc1c2c(nn1-c1nnc(-c3ccc(OC(C)C)c(C#N)c3)s1)CCN(C(=O)CNC[C@H](C)O)C2` [Example 33, 5-[5-(5-{N-[(2S)-2-hydroxypropyl]glycyl}-3-methyl-4,5,6,7-tetrahydro-2H-pyrazolo[4,3-c]pyridin-2-yl)-1,3,4-thiadiazol-2-yl]-2-[(1-methylethyl)oxy]benzonitrile], at S1P1 [1], the EC50 was ≤ 100 nM. Still for that read-out and setting: with `Cc1c2c(nn1-c1nnc(-c3ccc(OC(C)C)c(C#N)c3)s1)CCN(C(=O)CNC[C@H](O)CO)C2` [Example 34, 5-[5-(5-{N-[(2S)-2,3-dihydroxypropyl]glycyl}-3-methyl-4,5,6,7-tetrahydro-2H-pyrazolo[4,3-c]pyridin-2-yl)-1,3,4-thiadiazol-2-yl]-2-[(1-methylethyl)oxy]benzonitrile] the figure was ≤ 10 nM; with `Cc1c2c(nn1-c1nnc(-c3ccc(OC(C)C)c(C#N)c3)s1)CCN(C(=O)CNCCO)C2` [Example 35, 5-(5-{5-[N-(2-hydroxyethyl)glycyl]-3-methyl-4,5,6,7-tetrahydro-2H-pyrazolo[4,3-c]pyridin-2-yl}-1,3,4-thiadiazol-2-yl)-2-[(1-methylethyl)oxy]benzonitrile], ≤ 10 nM. `Cc1c2c(nn1-c1nnc(-c3ccc(OC(C)C)c(C#N)c3)s1)CCN(C(=O)CNC(CO)CO)C2` [Example 36, 5-[5-(5-{N-[2-hydroxy-1-(hydroxymethyl)ethyl]glycyl}-3-methyl-4,5,6,7-tetrahydro-2H-pyrazolo[4,3-c]pyridin-2-yl)-1,3,4-thiadiazol-2-yl]-2-[(1-methylethyl)oxy]benzonitrile]: the EC50 on S1P1 [1] was ≤ 10 nM. `COC(=O)[C@H](O)CN1CCc2nn(-c3nnc(-c4ccc(OC(C)C)c(Cl)c4)s3)c(C)c2C1` [Example 41, methyl (2R)-3-[2-(5-{3-chloro-4-[(1-methylethyl)oxy]phenyl}-1,3,4-thiadiazol-2-yl)-3-methyl-2,4,6,7-tetrahydro-5H-pyrazolo[4,3-c]pyridin-5-yl]-2-hydroxypropanoate]: the EC50 at S1P1 [1] was ≤ 10 nM. The same measure, in the same setting: with `Cc1c2c(nn1-c1nnc(-c3ccc(OC(C)C)c(Cl)c3)s1)CCN(C[C@H](O)CO)C2` [Example 42, (2S)-3-[2-(5-{3-chloro-4-[(1-methylethyl)oxy]phenyl}-1,3,4-thiadiazol-2-yl)-3-methyl-2,4,6,7-tetrahydro-5H-pyrazolo[4,3-c]pyridin-5-yl]-1,2-propanediol formic acid salt] the figure was ≤ 100 nM. In the case of `CCCCCCCCc1ccc(CCC(N)(CO)CO)cc1` [FTY720], the bradycardia entry in series [3] is “results in bradycardia”. Also, the “effect on circulating lymphocytes” value in the series on circulating lymphocytes is given as “reduce circulating lymphocytes”.
